Data taken from US20080004694A1, “COMPOSITIONS AND METHODS FOR ADMINISTERING DEXAMETHASONE WHICH PROMOTE HUMAN CORONARY ARTERY ENDOTHELIAL CELL MIGRATION” (ABBOTT LABORATORIES, priority 2006, published 2008).
“Also recorded” adds a separate entry of the source.

Legend:
[1] = test system: human coronary artery endothelial cells (hCaEC); assay: hCaEC migration induced by full growth media after 24 h drug pretreatment; assay type: cell-based; settings: for effect on full growth media induced hCaEC migration after drug pretreatment: 24 h pretreatment in full growth media, drug present during migration
Description: (§1) In acute studies, cells were collected, counted, and 200,000 hCaEC or 160,000 hCaSMC placed in the upper chambers of modified boyden chambers in 24 well plates (BD Biosciences). Plates contained microporous membranes of 3.0 and 8.0 um for hCaEC and hCaSMC, respectively. […] After migration, cells were stained with calcein-AM for 90 minutes and fluorescence determined using a plate reader capable of measuring fluorescence emitted by the bottom of the microporous filter.
Migration of hCaEC was induced by full growth media and the effects of the drugs sirolimus, dexamethasone, zotarolimus, everolimus, and paclitaxel on hCaEC migration determined. Following pretreatment cells were counted and re-suspended in basal media containing drugs and migration initiated.

[2] = test system: p70S6K (T389) phosphorylation in hCaEC; assay: Western blot of p70S6K (T389) phosphorylation in hCaEC; assay type: cell-based, human; settings: for effect on p70S6K T389 phosphorylation in hCaEC: 300 nM drug in growth media, 36 hours, after 24 h synchronization
Description: Human Coronary Endothelial Cells (hCaEC, Cambrex) were seeded on 100 mm plastic dishes (1-3×10^5 cells per dish) and incubated at 37° C. with 5% CO2 in complete growth media containing hFGF, HEGF, VEGF, R^3-IGF-1 and 5% FBS (GM). Cells were allowed to grow until dishes were 30-40% confluent. Cells were synchronized by incubation in basal media without supplements (BM) for 24 h. After synchronization the BM was replaced with GM containing test compounds, DMSO and BSA (Experimental dish: GM containing 300 nM test compounds, 0.1% BSA; Positive control: GM containing 0.1% BSA and 0.1% DMSO; Negative control: BM containing 0.1 or 0.5% FBS, 0.1% BSA and 0.1% DMSO).
Cells were incubated for 24 or 36 hours at 37° C. with 5% CO2. After which dishes were 50-70% confluent. Dishes were rinsed with warm PBS to remove excess FBS and than placed on ice. Whole cell lysates were prepared by adding 150-200 ul of RIPA lysis buffer at 4° C. (50 mM Tris HCl pH 8, 150 mM NaCl, 1% NP-40, 0.5% sodium deoxycholate, 0.1% SDS, 2 mM PMSF, 1 mM sodium orthovanadate, and protease inhibitor cocktail, Santa Cruz Biotechnology) to the culture dishes and collected by scrapping the plate surface with a cell scrapper. Lysates were transferred to 1 ml eppendorf tubes and incubated on ice with vortexing for 30 min. Samples were than centrifuged for 8 min at 10000 rpm. Supernatants were collected and transferred into new tubes and stored at −70° C.
The total protein concentration of the samples was determined by a modification of the method of Bradford (Quick Start Bradford Microplate Standard Assay, Bio-Rad) with bovine γ-globulin as a standard.
Total volume of the loaded sample was 45 ul containing 15 ul of 3× sample buffer (Laemmli Sample Buffer, Bio Rad), and sample (30 ul) containing 25 to 50 ug of protein. Samples were diluted to the same protein concentration. Samples were mixed and boiled at 98° C. for 3-4 minutes. Denaturated samples were separated in 4-15% gradient or 12% Ready Tris-HCl gels (Bio-Rad) in running buffer 25 mM Tris, pH 8.3, 192 mM glycine, 0.1% SDS at 150-180 V for 60-90 minutes and transferred to Hybond-ECL membrane (Amersham Biosciences) in 25 mM Tris, pH 8.3, 192 mM glycine, 20% methanol at 100 V for 1 hour.
Protein transfer to the membrane was verified by staining with Ponceau. Ponceau was removed by washing membranes 3 times for 5 minutes in TBS-T (10 mM Tris, pH 7.4, 150 mM NaCl, and 0.1% Tween 20). The membrane was blocked with a 3% solution of nonfat dry milk (Blotting-Grade Blocker, Bio-Rad) in TBS-T for 1 hour at room temperature. Membranes were then incubated with rabbit anti-phospho-p70S6K (T389) monoclonal antibody (Cell Signaling) 1:200 or 1:400 in 3% nonfat dry milk overnight at +4° C. and gently rocked. Goat polyclonal antibodies raised against the C-terminus of actin of human origin (Santa-Cruz Biotechnology) were used at a 1:800 dilution.
After overnight incubation with the primary antibody, membranes were washed with TBS-T 3 times for 5 minutes followed by incubation with the appropriate horseradish peroxidase linked secondary antibodies in 3% nonfat dry milk according to antibody supplier instructions. After one-hour incubation at room temperature with secondary antibodies the membrane was washed again using TBS-T, 3 times for 5 minutes and developed using ECL Plus (Amersham Biosciences). Images of the membranes were scanned and stored using a multi-channel scanning system FLA-5000 (FUJI Film). […]

[3] = test system: human coronary artery endothelial cells (hCaEC); assay: hCaEC migration, modified Boyden chamber, acute drug exposure, induced by 5% FBS; assay type: cell-based; settings: for effect on hCaEC migration: no pretreatment, 22 hour migration
Description: As such, EC and SMC migration in response to hFGF, HEGF, VEGF, R^3-IGF-1 and FBS or FBS alone was determined using a modified Boyden chamber.
When necessary, each cell type was passed at ˜75% confluence.
as §1

[4] = test system: human coronary artery endothelial cells (hCaEC); assay: hCaEC migration in response to FBS after 24 h drug pretreatment; assay type: cell-based; settings: 24 h pretreatment in growth media; migration to 5% FBS without growth factors; drug present
Description: as §1
To determine if growth factors contained in full growth media played a role in the inability of the mTOR antagonists (sirolimus or zotarolimus) or dexamethasone to inhibit migration, additional experiments were conducted to determine if drug pretreatment would affect migration induced by 5% FBS in the absence of growth factors. Migration in response to FBS following pretreatment of hCaEC with different concentrations of drugs was determined for the drugs sirolimus, dexamethasone, zotarolimus, and paclitaxel. To explore this effect in hCaEC, cells were synchronized, pretreated with drug in growth media for 24 hours, resuspended in basal media containing drug and migration in response to FBS determined. […] Dexamethasone promoted hCaEC migration.

[5] = test system: human coronary artery smooth muscle cells (hCaSMC); assay: hCaSMC migration in response to FBS alone after 24 h drug pretreatment; assay type: cell-based; settings: 24 h pretreatment in growth media, drug present
Description: as §1
Another experiment was conducted to determine if growth factors contained in full growth media played a role in the inability of the mTOR antagonist zotarolimus or dexamethasone to inhibit human coronary artery smooth muscle cell (hCaSMC) migration. Migration in response to FBS following pretreatment of hCaSMC with different concentrations of drugs was determined for the drugs dexamethasone, zotarolimus, rapamycin, and paclitaxel. To explore this effect, hCaSMC were synchronized, pretreated with drug in growth media for 24 hours, resuspended in basal media containing drug and migration in response to FBS alone determined.

[6] = test system: human coronary artery smooth muscle cells (hCaSMC); assay: PDGF-BB induced hCaSMC migration after 24 h drug pretreatment; assay type: cell-based; settings: 24 h pretreatment; PDGF-BB 25 ng/ml
Description: as §1
Pre-exposure with the mTOR agent sirolimus has been reported to block rat aortic smooth muscle cell migration in response to S1P-1 and porcine aortic smooth muscle in response to PDGF-BB. […] In contrast to their inability to block serum-induced migration, zotarolimus, dexamethasone, and paclitaxel all inhibited migration in response to the single chemotactic agent PDGF-BB (25 ng/ml).

[7] = test system: p70S6K (T389) phosphorylation in hCaSMC; assay: Western blot of p70S6K (T389) phosphorylation in hCaSMC; assay type: cell-based, human; settings: 300 nM drug, 36 hours, after 24 h synchronization
Description: To determine if inhibition of p70S6K was involved in serum-induced migration Western blot experiments were performed on hCaEC and hCaSMC treated using an experimental paradigm similar to those of the migration experiments. […] The effects of drug treatment on p70S6K T389 phosphorylation in hCaEC are illustrated in FIG. 6A-6B. […] Paclitaxel also reduces T389 phosphorylation though this effect is less than that of the mTOR antagonists.
Membranes were probed with a rabbit anti-phospho-p70S6K (T389) monoclonal antibody (Cell Signaling). […] Furthermore, the anti-migratory activity of the mTOR antagonists is not likely to contribute to their anti-restenotic activity. Conversely, paclitaxel is a potent anti-migratory agent and this effect is likely to contribute to the anti-restenotic activity.

pRb phosphorylation = assay: pRb phosphorylation; assay type: cell-based

| Structure (SMILES) | effect on full growth media induced hCaEC migration after drug pretreatment [1] | effect on p70S6K T389 phosphorylation in hCaEC [2] | anti-migratory potency in hCaEC compared to hCaSMC [3] | effect on migration of human coronary artery endothelial cells in vitro (summary statement) ([1]; in the presence of multiple growth factors and FBS) | effect on FBS-induced hCaEC migration after drug pretreatment [4] | effect on FBS-induced hCaSMC migration after drug pretreatment [5] | effect on hCaSMC migration in response to PDGF-BB [6] | effect on p70S6K T389 phosphorylation in hCaEC ([2]; listed as Paclitaxel) | effect on p70S6K T389 phosphorylation in hCaSMC [7] | effect on hCaEC migration [3] | p70S6K T389 to actin ratio compared to growth controls (densitometry) ([2]; hCaEC, 300 nM drug) | effect on pRb phosphorylation (pRb phosphorylation) |
| --- | --- | --- | --- | --- | --- | --- | --- | --- | --- | --- | --- | --- |
| CO[C@H]1C[C@@H]2CC[C@@H](C)[C@@](O)(O2)C(=O)C(=O)N2CCCC[C@H]2C(=O)O[C@H]([C@H](C)C[C@@H]2CC[C@@H](OCCO)[C@H](OC)C2)CC(=O)[C@H](C)/C=C(\C)[C@@H](O)[C@@H](OC)C(=O)[C@H](C)C[C@H](C)/C=C/C=C/C=C/1C [everolimus] | only paclitaxel inhibits |  |  |  |  |  |  |  |  |  |  |  |
| C[C@@H]1C[C@H]2[C@@H]3CCC4=CC(=O)C=C[C@]4(C)[C@@]3(F)[C@@H](O)C[C@]2(C)[C@@]1(O)C(=O)CO [dexamethasone] |  | does not inhibit |  |  |  |  |  |  |  |  |  |  |
| CC(=O)O[C@H]1C(=O)[C@@]2(C)[C@H]([C@H](OC(=O)c3ccccc3)[C@]3(O)C[C@H](OC(=O)[C@H](O)[C@@H](NC(=O)c4ccccc4)c4ccccc4)C(C)=C1C3(C)C)[C@]1(OC(C)=O)CO[C@@H]1C[C@@H]2O [paclitaxel] | inhibits | inhibit | significantly greater | inhibits | significantly blocks | significantly blocks | inhibited | reduces | reduces |  |  |  |
| CO[C@H]1C[C@@H]2CC[C@@H](C)[C@@](O)(O2)C(=O)C(=O)N2CCCC[C@H]2C(=O)O[C@H]([C@H](C)C[C@@H]2CC[C@@H](O)[C@H](OC)C2)CC(=O)[C@H](C)/C=C(\C)[C@@H](O)[C@@H](OC)C(=O)[C@H](C)C[C@H](C)/C=C/C=C/C=C/1C [sirolimus] |  |  |  |  |  |  |  |  |  | no effect |  |  |
| CO[C@H]1C[C@@H]2CC[C@@H](C)[C@@](O)(O2)C(=O)C(=O)N2CCCC[C@H]2C(=O)O[C@H]([C@H](C)C[C@@H]2CC[C@H](n3cnnn3)[C@H](OC)C2)CC(=O)[C@H](C)/C=C(\C)[C@@H](O)[C@@H](OC)C(=O)[C@H](C)C[C@H](C)/C=C/C=C/C=C/1C [zotarolimus] | only paclitaxel inhibits | completely block; also recorded: inhibit |  |  | did not significantly block | did not significantly block | inhibited |  | completely inhibit | no effect | significant inhibition | reduces |
